Target: VR (Homo sapiens, UniProt Q8NER1)
Sequence (Q8NER1 whole entry): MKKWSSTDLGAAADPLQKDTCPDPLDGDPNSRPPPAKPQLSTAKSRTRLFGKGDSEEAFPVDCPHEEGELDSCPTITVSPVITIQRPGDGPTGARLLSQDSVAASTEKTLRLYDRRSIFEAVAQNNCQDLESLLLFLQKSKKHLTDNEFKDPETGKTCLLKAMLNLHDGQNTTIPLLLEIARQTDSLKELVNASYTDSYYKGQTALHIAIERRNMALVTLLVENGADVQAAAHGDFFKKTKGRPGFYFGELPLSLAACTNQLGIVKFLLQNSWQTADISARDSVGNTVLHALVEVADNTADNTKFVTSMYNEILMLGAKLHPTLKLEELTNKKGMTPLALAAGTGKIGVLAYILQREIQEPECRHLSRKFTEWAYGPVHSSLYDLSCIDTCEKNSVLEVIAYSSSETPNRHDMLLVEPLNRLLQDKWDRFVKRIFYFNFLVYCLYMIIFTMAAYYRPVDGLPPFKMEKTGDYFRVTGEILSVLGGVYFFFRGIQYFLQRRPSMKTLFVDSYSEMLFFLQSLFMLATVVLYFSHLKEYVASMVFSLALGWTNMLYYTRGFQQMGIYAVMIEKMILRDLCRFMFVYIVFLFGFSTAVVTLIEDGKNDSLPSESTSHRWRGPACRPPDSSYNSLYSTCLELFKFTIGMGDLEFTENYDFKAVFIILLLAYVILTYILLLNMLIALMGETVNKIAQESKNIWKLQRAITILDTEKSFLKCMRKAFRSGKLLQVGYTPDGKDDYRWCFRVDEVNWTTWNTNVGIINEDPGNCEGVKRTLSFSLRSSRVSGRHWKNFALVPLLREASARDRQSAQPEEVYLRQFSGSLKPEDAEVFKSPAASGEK
Assay: not given
Details: typical value, non-selective cation channel blocker binding to VR; cited from earlier work
In the case of `Cl.Cl.Cl.Cl.Cl.Cl.N.N.N.N.N.N.N.N.N.N.N.N.N.N.[O-2].[O-2].[Ru+3].[Ru+3].[Ru+4]` [ruthenium red], the Ki is given as at least 140 µM.

Target: T1, human capsaicin receptor (Homo sapiens, UniProt Q8NER1)
T1 construct: expressed in transfected cells
T1 sequence (Q8NER1 whole entry): as above
Assay: Calcium mobilization assay, determination of antagonist activity (Example 6)
Type: cell-based
Details: Table III; assay provided in Example 6; cells expressing human capsaicin receptor, capsaicin at EC50
Outline: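 Stable HEK293 clones expressing full-length human capsaicin receptor, loaded with Fluo-3 AM in KRH buffer pH 7.4 (1–2 h, 37 °C). Test compound (1–5 μM final) preincubated 0.5–6 h at room temperature in the dark, then capsaicin added at its EC50. FLIPR/Fluoroskan calcium signal; IC50 as concentration halving the capsaicin response.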
`CNc1cc(C(F)(F)F)c(-c2cnc3c(Nc4ccc(C(F)(F)F)cn4)ccnc3n2)nn1` [Compound 100, 3-[6-(methylamino)-4-(trifluoromethyl)pyridazin-3-yl]-N-[5-(trifluoromethyl)pyridin-2-yl]pyrido[2,3-b]pyrazin-8-amine] gave an IC50 of under 1000 nM.
`CN1CCN(CCCNc2cc(C(F)(F)F)c(-c3cnc4c(Nc5ccc(C(F)(F)F)cn5)ccnc4n3)nn2)CC1` [Compound 81, 3-[6-{[3-(4-methylpiperazin-1-yl)propyl]amino}-4-(trifluoromethyl)pyridazin-3-yl]-N-[5-(trifluoromethyl)pyridin-2-yl]pyrido[2,3-b]pyrazin-8-amine] showed an IC50 of under 1000 nM.
Compound `C=CCNc1cc(C(F)(F)F)c(-c2cnc3c(Nc4ccc(C(F)(F)F)cn4)ccnc3n2)nn1` [Compound 152, 3-[6-(allylamino)-4-(trifluoromethyl)pyridazin-3-yl]-N-[5-(trifluoromethyl)pyridin-2-yl]pyrido[2,3-b]pyrazin-8-amine] has an IC50 of under 1000 nM.
`FC(F)(F)c1ccc(Nc2ccnc3nc(-c4nnc(NCCCCN5CCCC5)cc4C(F)(F)F)cnc23)nc1` [Compound 84, 3-{6-[(4-pyrrolidin-1-ylbutyl)amino]-4-(trifluoromethyl)pyridazin-3-yl}-N-[5-(trifluoromethyl)pyridin-2-yl]pyrido[2,3-b]pyrazin-8-amine] gave an IC50 of under 1000 nM.
With `CCC(COC)Nc1cc(C(F)(F)F)c(-c2cnc3c(Nc4ccc(C(F)(F)F)cn4)ccnc3n2)nn1` (centres unmarked) [Compound 166, 3-[6-{[1-(methoxymethyl)propyl]amino}-4-(trifluoromethyl)pyridazin-3-yl]-N-[5-(trifluoromethyl)pyridin-2-yl]pyrido[2,3-b]pyrazin-8-amine] the IC50 was under 1000 nM.
`CCCCCNc1cc(C(F)(F)F)c(-c2cnc3c(Nc4ccc(C(F)(F)F)cn4)ccnc3n2)nn1` [Compound 153, 3-[6-(pentylamino)-4-(trifluoromethyl)pyridazin-3-yl]-N-[5-(trifluoromethyl)pyridin-2-yl]pyrido[2,3-b]pyrazin-8-amine] showed an IC50 of under 1000 nM.
With `CN(C)CCNc1cc(C(F)(F)F)c(-c2cnc3c(Nc4ccc(C(F)(F)F)cn4)ccnc3n2)nn1` [Compound 69, N,N-dimethyl-N′-[5-(trifluoromethyl)-6-(8-{[5-(trifluoromethyl)pyridin-2-yl]amino}pyrido[2,3-b]pyrazin-3-yl)pyridazin-3-yl]ethane-1,2-diamine] the IC50 was under 1000 nM.
With `CN(C)CCCNc1cc(C(F)(F)F)c(-c2cnc3c(Nc4ccc(C(F)(F)F)cn4)ccnc3n2)nn1` [Compound 139, N,N-dimethyl-N′-[5-(trifluoromethyl)-6-(8-{[5-(trifluoromethyl)pyridin-2-yl]amino}pyrido[2,3-b]pyrazin-3-yl)pyridazin-3-yl]propane-1,3-diamine] the IC50 was under 1000 nM.
`CN(CCCO)c1cc(C(F)(F)F)c(-c2cnc3c(Nc4ccc(C(F)(F)F)cn4)ccnc3n2)nn1` [Compound 137, 3-{methyl[5-(trifluoromethyl)-6-(8-{[5-(trifluoromethyl)pyridin-2-yl]amino}pyrido[2,3-b]pyrazin-3-yl)pyridazin-3-yl]amino}propan-1-ol] showed an IC50 of under 1000 nM.
`OC1CCCN(c2cc(C(F)(F)F)c(-c3cnc4c(Nc5ccc(C(F)(F)F)cn5)ccnc4n3)nn2)C1` (centres unmarked) [Compound 195, 1-[5-(trifluoromethyl)-6-(8-{[5-(trifluoromethyl)pyridin-2-yl]amino}pyrido[2,3-b]pyrazin-3-yl)pyridazin-3-yl]piperidin-3-ol] showed an IC50 of under 1000 nM.

Reference: patent US20080175794A1, “Substituted Pyridazinyl- and Pyrimidinyl-Quinolin-4-Ylamine Analogues” (NEUROGEN CORPORATION, priority 2005, published 2008)
